Measurements published in ChEMBL document CHEMBL1158727, “Cyclobutane dimers from the Colombian medicinal plant Achyrocline bogotensis” (2005).

Assays:
Format in all cases: functional
PBMC [1] = assay: Inhibition of LPS-induced IL10 production in human PBMC at 0.3 mg/mL after 48 hrs by ELISA
PBMC [2] = assay: Inhibition of LPS-induced IL12 production in human PBMC at 0.3 mg/mL after 48 hrs by ELISA
PBMC [3] = assay: Inhibition of LPS-induced TNFalpha production in human PBMC at 0.3 mg/mL after 48 hrs by ELISA

Compound: C[C@]12C=CC(=O)C=C1CC[C@@H]1[C@@H]2[C@@H](O)C[C@@]2(C)[C@H]1CC[C@]2(O)C(=O)CO [PREDNISOLONE]
- inhibition at 300 µg/mL (PBMC [1]): 0.14%
- inhibition at 300 µg/mL (PBMC [2]): 0.24%
- inhibition at 300 µg/mL (PBMC [3]): 0.44%
